# Test results taken from ChEMBL document CHEMBL1955728, “3,5-Disubstituted indole derivatives as selective human neuronal nitric oxide synthase (nNOS) inhibitors” (Bioorg Med Chem Lett, 2012).
# Activity calls are given as the source filed them. The rule behind the calls is not given here.
# Experiments:
# [1] = target: Nitric oxide sythases; iNOS & nNOS (Homo sapiens) (UniProt P29475+P35228); assay: Selectivity ratio of IC50 for human iNOS to IC50 for human nNOS
# Nitric oxide synthase 3 = target: T1, Nitric oxide synthase 3 (Homo sapiens, UniProt P29474); assay: Inhibition of human eNOS expressed in baculovirus infected insect Sf9 cells assessed as conversion of [3H]-L-arginine to [3H]-L-citrulline
# T1 sequence (P29474 whole entry): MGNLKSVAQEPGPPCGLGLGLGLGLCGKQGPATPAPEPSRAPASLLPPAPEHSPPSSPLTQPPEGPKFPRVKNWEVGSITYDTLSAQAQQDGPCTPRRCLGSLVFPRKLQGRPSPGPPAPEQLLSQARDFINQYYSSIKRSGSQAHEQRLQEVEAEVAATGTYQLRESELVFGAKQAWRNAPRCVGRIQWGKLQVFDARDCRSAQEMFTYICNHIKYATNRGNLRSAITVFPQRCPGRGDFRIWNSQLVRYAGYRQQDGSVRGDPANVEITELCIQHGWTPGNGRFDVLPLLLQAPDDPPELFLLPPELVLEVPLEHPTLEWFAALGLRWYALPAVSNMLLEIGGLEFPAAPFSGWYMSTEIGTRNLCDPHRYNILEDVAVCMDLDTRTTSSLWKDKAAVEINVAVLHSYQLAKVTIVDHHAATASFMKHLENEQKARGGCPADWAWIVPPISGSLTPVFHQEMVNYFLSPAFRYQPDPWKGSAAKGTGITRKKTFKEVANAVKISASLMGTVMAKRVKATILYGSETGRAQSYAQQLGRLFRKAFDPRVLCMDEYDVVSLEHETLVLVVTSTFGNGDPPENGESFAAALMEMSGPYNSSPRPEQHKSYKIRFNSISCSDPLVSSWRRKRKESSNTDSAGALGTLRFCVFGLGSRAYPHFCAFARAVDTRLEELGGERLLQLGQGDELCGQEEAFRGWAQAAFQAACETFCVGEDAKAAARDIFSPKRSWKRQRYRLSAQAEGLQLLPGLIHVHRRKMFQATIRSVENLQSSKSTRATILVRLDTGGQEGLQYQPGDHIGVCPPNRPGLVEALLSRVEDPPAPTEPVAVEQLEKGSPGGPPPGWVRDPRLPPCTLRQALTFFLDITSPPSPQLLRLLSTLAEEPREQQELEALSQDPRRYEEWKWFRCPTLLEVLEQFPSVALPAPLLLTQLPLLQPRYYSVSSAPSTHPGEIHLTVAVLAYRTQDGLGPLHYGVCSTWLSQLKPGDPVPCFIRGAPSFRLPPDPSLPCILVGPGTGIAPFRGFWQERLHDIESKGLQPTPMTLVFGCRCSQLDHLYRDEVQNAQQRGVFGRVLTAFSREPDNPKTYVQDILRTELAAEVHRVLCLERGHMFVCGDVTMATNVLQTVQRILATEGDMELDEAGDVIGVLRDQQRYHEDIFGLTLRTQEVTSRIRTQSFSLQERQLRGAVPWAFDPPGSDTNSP
# Nitric oxide synthase 1 [2] = target: Nitric oxide synthase 1 (Homo sapiens, UniProt P29475); assay: Inhibition of human nNOS expressed in baculovirus infected insect Sf9 cells assessed as conversion of [3H]-L-arginine to [3H]-L-citrulline
# Chain of Nitric oxide synthase 1 (Homo sapiens, UniProt P29475) (P29475 whole entry): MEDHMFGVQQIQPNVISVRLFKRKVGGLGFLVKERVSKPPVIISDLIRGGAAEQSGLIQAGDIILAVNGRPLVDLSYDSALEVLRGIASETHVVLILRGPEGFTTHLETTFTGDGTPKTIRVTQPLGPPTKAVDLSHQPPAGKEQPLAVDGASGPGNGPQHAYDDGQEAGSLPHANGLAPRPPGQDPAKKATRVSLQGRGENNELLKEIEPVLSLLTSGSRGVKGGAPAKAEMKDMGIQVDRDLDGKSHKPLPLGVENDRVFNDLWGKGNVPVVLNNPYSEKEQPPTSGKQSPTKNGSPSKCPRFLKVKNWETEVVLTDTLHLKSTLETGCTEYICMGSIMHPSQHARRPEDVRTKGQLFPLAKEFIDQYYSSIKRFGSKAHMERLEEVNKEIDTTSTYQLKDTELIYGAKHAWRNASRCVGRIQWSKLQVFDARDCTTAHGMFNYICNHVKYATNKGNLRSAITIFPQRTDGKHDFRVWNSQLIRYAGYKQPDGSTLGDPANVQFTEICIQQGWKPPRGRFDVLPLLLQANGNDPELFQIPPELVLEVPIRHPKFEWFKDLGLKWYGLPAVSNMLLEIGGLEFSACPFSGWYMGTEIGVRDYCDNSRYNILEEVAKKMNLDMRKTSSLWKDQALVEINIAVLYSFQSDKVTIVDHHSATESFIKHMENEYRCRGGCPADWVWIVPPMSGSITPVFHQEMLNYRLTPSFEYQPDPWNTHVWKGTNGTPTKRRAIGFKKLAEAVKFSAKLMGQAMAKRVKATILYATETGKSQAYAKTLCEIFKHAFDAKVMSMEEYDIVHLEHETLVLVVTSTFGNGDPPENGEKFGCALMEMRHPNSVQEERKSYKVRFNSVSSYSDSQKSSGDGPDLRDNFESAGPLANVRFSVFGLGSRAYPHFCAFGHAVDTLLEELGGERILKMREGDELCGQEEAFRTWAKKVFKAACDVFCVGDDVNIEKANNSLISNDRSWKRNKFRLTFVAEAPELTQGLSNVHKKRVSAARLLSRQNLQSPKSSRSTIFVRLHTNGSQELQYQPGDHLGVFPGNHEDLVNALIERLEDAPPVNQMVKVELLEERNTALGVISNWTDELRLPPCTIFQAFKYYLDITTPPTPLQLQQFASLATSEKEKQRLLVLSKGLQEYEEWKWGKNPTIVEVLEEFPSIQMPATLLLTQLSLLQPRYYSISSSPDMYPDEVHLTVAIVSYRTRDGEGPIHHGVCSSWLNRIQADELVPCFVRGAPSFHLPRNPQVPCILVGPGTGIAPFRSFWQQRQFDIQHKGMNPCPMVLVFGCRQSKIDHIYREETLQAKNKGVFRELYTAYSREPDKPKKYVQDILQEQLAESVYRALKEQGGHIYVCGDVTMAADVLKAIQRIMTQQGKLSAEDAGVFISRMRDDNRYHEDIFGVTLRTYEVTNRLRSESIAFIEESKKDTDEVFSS
# Homo sapiens = organism: Homo sapiens; assay: Selectivity ratio of IC50 for human eNOS to IC50 for human nNOS
# Rattus norvegicus [3] = assay: Antihyperalgesic activity in rat L5/L6 SNL model of neuropathic pain assessed as reversal of thermal hyperalgesia at 10 mg/kg, ip measured after 30 to 120 mins; format: functional, organism-based; design: dose 10 mg/kg
# Nitric oxide synthase 1 [4] = target: Nitric oxide synthase 1 (Rattus norvegicus, UniProt P29476); assay: Inhibition of rat nNOS
# Chain of Nitric oxide synthase 1 (Rattus norvegicus, UniProt P29476) (P29476 whole entry): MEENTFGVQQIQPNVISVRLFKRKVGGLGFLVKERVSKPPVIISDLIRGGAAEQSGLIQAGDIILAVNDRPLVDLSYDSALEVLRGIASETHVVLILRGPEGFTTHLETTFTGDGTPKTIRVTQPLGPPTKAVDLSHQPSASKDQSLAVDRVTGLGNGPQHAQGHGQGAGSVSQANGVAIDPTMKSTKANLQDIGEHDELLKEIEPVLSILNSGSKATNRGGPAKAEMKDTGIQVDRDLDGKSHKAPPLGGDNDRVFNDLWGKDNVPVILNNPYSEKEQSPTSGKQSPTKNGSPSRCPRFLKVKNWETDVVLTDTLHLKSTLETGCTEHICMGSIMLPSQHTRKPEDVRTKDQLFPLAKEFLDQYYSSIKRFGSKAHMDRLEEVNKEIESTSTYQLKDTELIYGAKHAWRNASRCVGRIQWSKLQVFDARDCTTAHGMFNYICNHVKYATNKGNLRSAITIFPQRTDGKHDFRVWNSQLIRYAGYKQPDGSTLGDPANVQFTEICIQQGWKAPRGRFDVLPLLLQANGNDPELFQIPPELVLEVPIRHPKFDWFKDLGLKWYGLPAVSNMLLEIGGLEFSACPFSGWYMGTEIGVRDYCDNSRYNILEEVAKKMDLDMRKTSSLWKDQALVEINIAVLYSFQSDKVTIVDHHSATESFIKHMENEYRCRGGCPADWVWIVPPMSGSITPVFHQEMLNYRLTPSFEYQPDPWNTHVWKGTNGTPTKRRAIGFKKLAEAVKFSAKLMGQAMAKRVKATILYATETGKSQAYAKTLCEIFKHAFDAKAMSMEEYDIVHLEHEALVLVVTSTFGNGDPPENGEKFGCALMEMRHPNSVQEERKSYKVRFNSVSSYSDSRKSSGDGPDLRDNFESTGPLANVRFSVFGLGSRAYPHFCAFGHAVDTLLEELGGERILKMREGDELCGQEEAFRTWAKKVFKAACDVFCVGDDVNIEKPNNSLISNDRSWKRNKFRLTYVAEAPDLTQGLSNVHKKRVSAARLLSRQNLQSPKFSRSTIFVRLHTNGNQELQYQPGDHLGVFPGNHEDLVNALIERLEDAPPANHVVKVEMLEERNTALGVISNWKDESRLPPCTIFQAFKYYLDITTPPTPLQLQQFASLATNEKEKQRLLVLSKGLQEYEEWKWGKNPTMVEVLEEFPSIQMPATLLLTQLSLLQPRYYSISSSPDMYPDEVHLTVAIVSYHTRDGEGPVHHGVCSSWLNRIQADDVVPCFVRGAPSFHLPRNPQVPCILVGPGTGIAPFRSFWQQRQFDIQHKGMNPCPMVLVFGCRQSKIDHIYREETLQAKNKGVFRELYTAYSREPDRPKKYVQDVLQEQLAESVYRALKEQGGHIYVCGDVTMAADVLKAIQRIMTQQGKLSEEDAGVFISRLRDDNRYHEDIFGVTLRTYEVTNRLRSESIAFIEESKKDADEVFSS
# [5] = target: Nitric oxide synthase, inducible (Homo sapiens, UniProt P35228); assay: Inhibition of human iNOS expressed in baculovirus infected insect Sf9 cells assessed as conversion of [3H]-L-arginine to [3H]-L-citrulline
# Chain of Nitric oxide synthase, inducible (P35228 whole entry): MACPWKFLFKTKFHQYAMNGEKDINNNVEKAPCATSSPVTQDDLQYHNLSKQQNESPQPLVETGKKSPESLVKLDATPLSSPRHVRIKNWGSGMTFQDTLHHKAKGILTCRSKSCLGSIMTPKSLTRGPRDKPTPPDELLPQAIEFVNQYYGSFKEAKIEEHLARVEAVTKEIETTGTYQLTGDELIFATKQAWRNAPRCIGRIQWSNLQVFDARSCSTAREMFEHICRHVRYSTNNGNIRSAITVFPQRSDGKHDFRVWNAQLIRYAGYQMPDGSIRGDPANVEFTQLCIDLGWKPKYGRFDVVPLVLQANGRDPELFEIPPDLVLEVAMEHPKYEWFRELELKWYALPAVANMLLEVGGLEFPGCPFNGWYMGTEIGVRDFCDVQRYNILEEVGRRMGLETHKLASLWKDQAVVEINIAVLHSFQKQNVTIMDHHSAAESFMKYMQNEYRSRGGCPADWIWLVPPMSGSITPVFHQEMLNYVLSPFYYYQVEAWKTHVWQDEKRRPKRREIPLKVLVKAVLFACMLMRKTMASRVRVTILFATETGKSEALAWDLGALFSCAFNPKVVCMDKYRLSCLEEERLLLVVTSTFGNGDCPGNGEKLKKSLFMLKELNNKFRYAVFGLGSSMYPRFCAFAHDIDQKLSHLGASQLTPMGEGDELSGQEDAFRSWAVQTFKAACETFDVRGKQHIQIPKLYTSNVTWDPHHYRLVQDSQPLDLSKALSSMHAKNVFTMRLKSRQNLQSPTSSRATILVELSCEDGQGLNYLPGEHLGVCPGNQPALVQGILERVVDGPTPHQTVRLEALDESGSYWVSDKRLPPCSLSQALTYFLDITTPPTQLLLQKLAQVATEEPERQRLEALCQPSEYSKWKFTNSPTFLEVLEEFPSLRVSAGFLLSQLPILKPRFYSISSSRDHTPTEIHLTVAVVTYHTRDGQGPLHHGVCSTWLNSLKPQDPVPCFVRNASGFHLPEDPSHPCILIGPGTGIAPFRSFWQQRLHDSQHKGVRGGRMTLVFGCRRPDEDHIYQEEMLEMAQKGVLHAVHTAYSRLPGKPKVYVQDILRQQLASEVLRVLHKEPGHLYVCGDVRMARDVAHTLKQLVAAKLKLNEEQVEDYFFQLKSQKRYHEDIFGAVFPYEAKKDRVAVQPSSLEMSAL
# Cytochrome P450 2C19 = Cytochrome P450 2C19 (Homo sapiens, UniProt P33261); assay: Inhibition of human CYP2C19; format: ADME
# Cytochrome P450 2C9 = Cytochrome P450 2C9 (Homo sapiens, UniProt P11712); assay: Inhibition of human CYP2C9; format: ADME
# Cytochrome P450 3A4 = Cytochrome P450 3A4 (Homo sapiens, UniProt P08684); assay: Inhibition of human CYP3A4; format: ADME
# Chain of Cytochrome P450 3A4 (P08684 whole entry): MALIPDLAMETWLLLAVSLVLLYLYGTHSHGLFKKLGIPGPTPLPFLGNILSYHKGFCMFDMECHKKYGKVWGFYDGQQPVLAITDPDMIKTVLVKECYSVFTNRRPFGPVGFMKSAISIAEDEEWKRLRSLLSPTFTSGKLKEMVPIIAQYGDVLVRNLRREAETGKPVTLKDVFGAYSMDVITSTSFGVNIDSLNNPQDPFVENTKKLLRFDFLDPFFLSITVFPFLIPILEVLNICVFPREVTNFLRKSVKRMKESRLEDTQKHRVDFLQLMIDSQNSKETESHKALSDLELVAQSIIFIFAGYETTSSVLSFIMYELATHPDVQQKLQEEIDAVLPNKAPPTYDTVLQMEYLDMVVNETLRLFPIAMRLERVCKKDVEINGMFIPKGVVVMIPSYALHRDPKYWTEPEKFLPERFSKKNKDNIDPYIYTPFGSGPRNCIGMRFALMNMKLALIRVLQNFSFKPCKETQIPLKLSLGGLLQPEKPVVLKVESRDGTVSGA
# Rattus norvegicus [6] = assay: Antihyperalgesic activity in rat L5/L6 SNL model of neuropathic pain assessed as reversal of thermal hyperalgesia at 10 mg/kg, ip measured after 30 mins; format: functional; conditions: route intraperitoneal
# Cytochrome P450 2D6 = Cytochrome P450 2D6 (Homo sapiens, UniProt P10635); assay: Inhibition of human CYP2D6; format: ADME
# Chain of Cytochrome P450 2D6 (P10635 whole entry): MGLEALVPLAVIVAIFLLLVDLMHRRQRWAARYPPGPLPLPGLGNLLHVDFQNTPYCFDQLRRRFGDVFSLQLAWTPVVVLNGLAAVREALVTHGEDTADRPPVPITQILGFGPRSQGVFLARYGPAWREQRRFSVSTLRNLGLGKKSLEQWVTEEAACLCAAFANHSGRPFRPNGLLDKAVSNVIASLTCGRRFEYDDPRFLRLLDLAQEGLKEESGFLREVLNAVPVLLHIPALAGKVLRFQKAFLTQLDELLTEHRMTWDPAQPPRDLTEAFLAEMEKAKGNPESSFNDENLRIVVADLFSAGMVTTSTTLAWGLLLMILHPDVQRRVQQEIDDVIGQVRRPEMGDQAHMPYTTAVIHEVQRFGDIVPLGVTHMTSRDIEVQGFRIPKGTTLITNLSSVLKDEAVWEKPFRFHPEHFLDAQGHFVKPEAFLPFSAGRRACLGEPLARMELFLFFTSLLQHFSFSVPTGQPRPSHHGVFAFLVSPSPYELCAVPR
# [7] = Vasoconstrictive activity in human arteries assessed as inhibition of acetylcholine-induced vasorelaxation at 10 uM in presence of thromboxane A2 mimetic agent U46619; format: tissue-based, Artery
# Cytochrome P450 1A2 = target: T2, Cytochrome P450 1A2 (Homo sapiens, UniProt P05177); assay: Inhibition of human CYP1A2; format: ADME
# T2 sequence (P05177 whole entry): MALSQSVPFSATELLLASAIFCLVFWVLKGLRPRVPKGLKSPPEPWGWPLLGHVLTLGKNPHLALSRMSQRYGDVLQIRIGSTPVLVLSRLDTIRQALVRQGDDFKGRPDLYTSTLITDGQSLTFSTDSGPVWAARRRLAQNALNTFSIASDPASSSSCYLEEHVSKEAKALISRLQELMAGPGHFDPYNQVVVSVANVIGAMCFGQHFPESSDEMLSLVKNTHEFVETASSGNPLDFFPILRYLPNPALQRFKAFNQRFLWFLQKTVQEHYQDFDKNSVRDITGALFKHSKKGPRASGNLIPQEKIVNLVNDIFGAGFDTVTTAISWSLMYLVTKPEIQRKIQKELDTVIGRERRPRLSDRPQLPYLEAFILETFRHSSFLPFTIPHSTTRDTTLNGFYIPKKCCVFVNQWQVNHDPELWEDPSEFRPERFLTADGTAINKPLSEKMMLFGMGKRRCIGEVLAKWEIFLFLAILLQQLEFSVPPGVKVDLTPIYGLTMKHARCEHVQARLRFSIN
# Chain of Nitric oxide sythases; iNOS & nNOS (Homo sapiens) (P29475 whole entry, looked up): as the sequence (P29475 whole entry) above
# Chain of Nitric oxide sythases; iNOS & nNOS (Homo sapiens) (P35228 whole entry, looked up): as the sequence (P35228 whole entry) above
Compound,Ratio IC50 [1],IC50 (Nitric oxide synthase 3) [µM],IC50 (Nitric oxide synthase 1 [2]) [nM],Ratio IC50 (Homo sapiens),other results
CN1CCC(c2c[nH]c3ccc(/N=C(\N)c4cccs4)cc23)CC1,57,,,,
CN1CC=C(c2c[nH]c3ccc(CNC(=N)c4cccs4)cc23)CC1,,64.7,1290,,
CN1CC=C(c2c[nH]c3ccc(C/N=C(\N)c4cccs4)cc23)CC1,66,,,50,
CN1CC=C(c2c[nH]c3ccc(/N=C(\N)c4ccco4)cc23)CC1,106,,,66,Activity (Rattus norvegicus [3]): Active
CN1CC=C(c2c[nH]c3ccc(NC(=S)NC(=O)c4ccccc4)cc23)CC1,,,,3,
CN1CC=C(c2c[nH]c3ccc(NC(=N)c4cccs4)cc23)CC1,,22.4,190,,IC50 (Nitric oxide synthase 1 [4]): 2300 nM
CN1CCC(c2c[nH]c3ccc(NC(=N)c4cccs4)cc23)CC1,,24.2,1020,,
Cc1ccc(C(=N)Nc2ccc3[nH]cc(C4=CCN(C)CC4)c3c2)s1,,65.3,10400,6,
CN1CC=C(c2c[nH]c3cc(NC(=N)c4cccs4)ccc23)CC1,15,,,33,
CN1CCC(c2c[nH]c3ccc(/N=C(\N)c4ccco4)cc23)CC1,48,,,43,
CSC(=N)Nc1ccc2[nH]cc(C3=CCN(C)CC3)c2c1,,,,,IC50 [5]: 17.1 µM
CN1CC=C(c2c[nH]c3ccc(/N=C(\N)c4cccs4)cc23)CC1,105,,,118,
CCS/C(N)=N/c1ccc2[nH]cc(C3=CCN(C)CC3)c2c1,,,,22,
CN1CCC(c2c[nH]c3ccc(NC(=N)c4ccccc4)cc23)CC1,,249,18000,14,
CS/C(N)=N/c1ccc2[nH]cc(C3=CCN(C)CC3)c2c1,8,,,16,
CN1CCC(c2c[nH]c3ccc(NC(=N)c4ccco4)cc23)CC1,,,,,IC50 [5]: 108 µM
CN1CC=C(c2c[nH]c3ccc(NC(=N)c4ccco4)cc23)CC1.Cl.Cl,,36.1,550,,IC50 (Cytochrome P450 2C19): > 100 µM; IC50 (Cytochrome P450 2C9): > 100 µM; IC50 (Cytochrome P450 3A4): > 100 µM; Activity (Rattus norvegicus [6]): 94%; IC50 (Cytochrome P450 2D6): 20.5 µM; IC50 [7]: Not Active; IC50 (Nitric oxide synthase 1 [4]): 2600 nM; IC50 (Cytochrome P450 1A2): 9.52 µM
